Assay results as given in PMC4420865 (Journal of Cerebral Blood Flow & Metabolism, 2015).

Columns and labels:
Pgp at the human BBB [1] = conditions: cited from earlier work
[2] = cited from earlier work
[3] = Adverse reactions during tariquidar infusion; format: in vivo, human
human Pgp = human Pgp (Homo sapiens, UniProt P08183); assay: Inhibition of transport of [^3H]verapamil by human Pgp; format: biochemical
Pgp at the human BBB [4] = conditions: humans, tariquidar 6 mg/kg body weight; cited from earlier work
[5] = Tariquidar plasma concentrations during PET scan 2; format: in vivo, human

Chain of human Pgp (P08183 whole entry): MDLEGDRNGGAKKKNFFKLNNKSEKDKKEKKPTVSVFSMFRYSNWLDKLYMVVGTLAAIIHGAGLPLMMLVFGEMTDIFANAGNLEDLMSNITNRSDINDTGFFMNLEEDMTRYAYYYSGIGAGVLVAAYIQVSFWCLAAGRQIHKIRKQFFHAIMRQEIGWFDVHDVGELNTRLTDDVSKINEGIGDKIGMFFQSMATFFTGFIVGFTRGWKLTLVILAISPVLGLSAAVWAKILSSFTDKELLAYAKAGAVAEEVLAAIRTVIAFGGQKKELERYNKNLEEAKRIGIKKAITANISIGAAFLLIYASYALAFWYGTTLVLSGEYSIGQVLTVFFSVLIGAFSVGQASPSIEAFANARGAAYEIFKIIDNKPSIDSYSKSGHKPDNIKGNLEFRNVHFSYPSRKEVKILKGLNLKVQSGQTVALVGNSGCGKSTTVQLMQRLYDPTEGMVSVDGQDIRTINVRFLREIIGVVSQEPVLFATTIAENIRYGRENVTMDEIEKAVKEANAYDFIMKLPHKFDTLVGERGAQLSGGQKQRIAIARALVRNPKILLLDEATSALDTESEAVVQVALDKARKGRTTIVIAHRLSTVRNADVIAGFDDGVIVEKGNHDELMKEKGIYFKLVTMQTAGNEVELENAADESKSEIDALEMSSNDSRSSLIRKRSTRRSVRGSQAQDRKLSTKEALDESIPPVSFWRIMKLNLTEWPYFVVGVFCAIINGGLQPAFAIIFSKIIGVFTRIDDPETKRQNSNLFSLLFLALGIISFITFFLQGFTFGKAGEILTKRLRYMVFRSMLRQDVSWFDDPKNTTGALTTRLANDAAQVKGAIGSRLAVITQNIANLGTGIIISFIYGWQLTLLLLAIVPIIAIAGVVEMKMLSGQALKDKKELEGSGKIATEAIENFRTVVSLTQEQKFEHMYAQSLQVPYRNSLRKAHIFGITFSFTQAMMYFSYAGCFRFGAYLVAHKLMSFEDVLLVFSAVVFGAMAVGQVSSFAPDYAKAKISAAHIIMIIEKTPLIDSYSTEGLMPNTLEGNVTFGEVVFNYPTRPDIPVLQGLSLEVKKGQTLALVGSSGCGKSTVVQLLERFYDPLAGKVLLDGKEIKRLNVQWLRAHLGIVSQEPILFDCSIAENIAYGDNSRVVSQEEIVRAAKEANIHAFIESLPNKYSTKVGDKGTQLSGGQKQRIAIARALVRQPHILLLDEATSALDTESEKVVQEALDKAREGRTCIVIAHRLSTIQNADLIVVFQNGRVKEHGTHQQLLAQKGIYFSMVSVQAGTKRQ

Ki (human Pgp): 8.5 nM
Mean tariquidar plasma concentration during the PET scan ([5]; continuous i.v. infusion, mean dose 5.9±1.0 mg/kg, mean±s.d.): 2,873±517 nmol/L
Mean tariquidar plasma concentration, times higher than in previous study ([5]; versus previous study ref 7): 2–3 times
Compound: COc1cc2c(cc1OC)CN(CCc1ccc(NC(=O)c3cc(OC)c(OC)cc3NC(=O)c3cnc4ccccc4c3)cc1)CC2 [tariquidar]
Increase in brain distribution of (R)-[^11C]verapamil (Pgp at the human BBB [1]; humans, tariquidar 6 mg/kg body weight): 129%
EC50 (Pgp at the human BBB [1]; read-out: Previously estimated EC50 of tariquidar in humans, enhancement of brain uptake of (R)-[^11C]verapamil): 868 nM
Fraction of unbound tariquidar in human plasma [2]: 0.0063±0.0021
Subjects with mild adverse reactions most likely related to tariquidar ([3]; five healthy men, mean dose 5.9±1.0 mg/kg i.v. infusion): four out of five subjects
Dizziness, N subjects ([3]; of five subjects): 1
Metallic taste in the mouth, N subjects ([3]; of five subjects): 3
Increase in brain distribution of [^11C]N-desmethyl-loperamide (Pgp at the human BBB [4]): 223%
